The values below come from patent US10821115B2, “Compounds that inhibit Mcl-1 protein” (priority 2017, dated 2020).

pIC50: −log10 of the molar value. Read-outs that look alike come from different tables or passages of the source.

For test [1], the system named is human multiple myeloma cell line, OPM-2. Briefly: Cell viability assay (OPM-2 10 FBS), CellTiter-Glo. Type of test: cell-based. Put shortly: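 Cells were seeded at 3000 cells/well in RPMI 1640 with 10% FBS and exposed to serially diluted compounds for 16 h at 37 °C, 5% CO2.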
For orientation: Cellular ATP, detected with luciferase, serves as a proxy for viable cell number.

Test [2] addresses recombinant human Mcl-1 (residues 171-327) / Bim interaction (Homo sapiens (Human), UniProt Q07820). Description: biochemical. Type of test: binding. Particulars: read-out: Mcl-1 HTRF IC50. Background: Time-resolved FRET reads energy transfer from a long-lived donor to a nearby acceptor.
[3] abbreviates: Homo sapiens, OPM-2, 16 h, read-out: OPM-2 10% FBS IC50 IP, OPM-2 cells, 10% FBS, 16 h, CellTiter-Glo.
Where [4] appears, read: TR-FRET, Mcl-1(171-327) / biotin-Bim (51-76).
[5] abbreviates: Homo sapiens, OPM-2, 16 h, read-out: OPM-2 10% FBS IC50 IP, OPM-2 cells, 10% FBS, 16 h incubation.
Where [6] appears, read: 0.1 nM Mcl-1(171-327), 0.05 nM biotin-Bim (51-76).
Setting [7] is: read-out: OPM-2 10% FBS IC50 IP, OPM-2 cells, 10% FBS, 16 h, CellTiter-Glo.

Sequence of recombinant human Mcl-1 (residues 171-327) / Bim interaction (Q07820 171-327): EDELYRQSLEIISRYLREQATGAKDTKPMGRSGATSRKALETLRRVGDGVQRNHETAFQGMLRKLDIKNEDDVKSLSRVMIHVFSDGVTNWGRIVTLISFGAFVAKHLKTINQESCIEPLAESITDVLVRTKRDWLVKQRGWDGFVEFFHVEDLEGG

Take `CC(=O)N[C@@]1(CO)CCC[C@H](C)[C@@H](C)S(=O)(=O)NC(=O)c2ccc3c(c2)N(C[C@@H]2CC[C@H]21)C[C@@]1(CCCc2cc(Cl)ccc21)CO3` [Example 100265, N-((1S,3′R,6′R,7′S,11′S,12′R)-6-chloro-7′-(hydroxymethyl)-11′,12′-dimethyl-13′,13′-dioxido-15′-oxo-3,4-dihydro-2H-spiro[naphthalene-1,22′-[20]oxa[13]thia[1,14]diazatetracyclo [14.7.2.0~3,6~.0~19,24~]pentacosa[16,18,24]trien]-7′-yl)acetamide]: the negative logarithm of the IC50 (pIC50) (as a rule, the IC50 on a negative log10 scale, so that one unit is a factor of ten) in test [1] (setting [3]) is 6.36; in test [2] (setting [4]), 9.36.

Take `CC[C@@H]1CCCC[C@@](O)(COC)[C@@H]2CC[C@H]2CN2C[C@@]3(CCCc4cc(Cl)ccc43)COc3ccc(cc32)C(=O)NS1(=O)=O` [Example 100039, (1S,3′R,6′R,7′S,12′R)-6-chloro-12′-ethyl-7′-hydroxy-7′-(methoxymethyl)-3,4-dihydro-2H,15′H-spiro[naphthalene-1,22′-[20]oxa[13]thia[1,14]diazatetracyclo [14.7.2.0~3,6~.0~19,24~]pentacosa[16,18,24]trien]-15′-one 13′,13′-dioxide]: the pIC50 in test [1] (setting [3]) was 6.13; in test [2] (setting [4]), 9.25.

With `CO[C@@]1(C[C@@H](O)C2CC2)/C=C/C[C@H](C)[C@@H](C)S(=O)(=O)NC(=O)c2ccc3c(c2)N(C[C@@H]2CC[C@H]21)C[C@@]1(CCCc2cc(Cl)ccc21)CO3` (racemic) [Example 100437, (1S,3′R,6′R,7′S,8′E,11′S,12′R)-6-chloro-7′-((2R)-2-cyclopropyl-2-hydroxyethyl)-7′-methoxy-11′,12′-dimethyl-3,4-dihydro-2H,15′H-spiro[naphthalene-1,22′-[20]oxa[13]thia[1,14]diazatetracyclo [14.7.2.0~3,6~.0~19,24~]pentacosa[8,16,18,24]tetraen]-15′-one 13′,13′-dioxide], the results for the pIC50 in test [1] (setting [3]) and in test [2] (setting [4]) were 6.27 and 10.14, respectively.

As for `CO[C@]1(CN2CCN3CCOC[C@@H]3C2)/C=C/[C@H](C)[C@H](C)CS(=O)(=O)NC(=O)c2ccc3c(c2)N(C[C@@H]2CC[C@H]21)C[C@@]1(CCCc2cc(Cl)ccc21)CO3` [Example 157, (1S,3′R,6′R,7′R,8′E,10′S,11′S)-6-chloro-7′-((9aS)-hexahydropyrazino[2,1-c][1,4]oxazin-8(1H)-ylmethyl)-7′-methoxy-10′,11′-dimethyl-3,4-dihydro-2H,15′H-spiro[naphthalene-1,22′-[20]oxa[13]thia[1,14]diazatetracyclo [14.7.2.0~3,6~.0~19,24~]pentacosa[8,16,18,24]tetraen]-15′-one 13′,13′-dioxide], the negative-log IC50 (pIC50) in test [1] (setting [5]) is 6.92; in test [2] (setting [6]), 9.90.

In the case of `CO[C@@]1(Cc2nnc(C)o2)/C=C/C[C@H](C)[C@@H](C)S(=O)(=O)NC(=O)c2ccc3c(c2)N(C[C@@H]2CC[C@H]21)C[C@@]1(CCCc2cc(Cl)ccc21)CO3` [Example 100512, (1S,3′R,6′R,7′S,8′E,11′S,12′R)-6-chloro-7′-methoxy-11′,12′-dimethyl-7′-((5-methyl-1,3,4-oxadiazol-2-yl)methyl)-3,4-dihydro-2H,15′H-spiro[naphthalene-1,22′-[20]oxa[13]thia[1,14]diazatetracyclo [14.7.2.0~3,6~.0~19,24~]pentacosa[8,16,18,24]tetraen]-15′-one 13′,13′-dioxide], the negative logarithm of the IC50 (pIC50) in test [1] (setting [3]) was 5.83; in test [2] (setting [4]), 9.38.

For `CO[C@@]1(C[C@H](O)c2ccccn2)/C=C/C[C@H](C)[C@@H](C)S(=O)(=O)NC(=O)c2ccc3c(c2)N(C[C@@H]2CC[C@H]21)C[C@@]1(CCCc2cc(Cl)ccc21)CO3` (single isomer, unassigned) [Example 100490], the pIC50 in test [1] (setting [7]) was 6.29; in test [2] (setting [4]) it was 9.53.

As to `C[C@@H]1[C@@H](C)C/C=C/[C@@](O)(CC=O)[C@@H]2CC[C@H]2CN2C[C@@]3(CCCc4cc(Cl)ccc43)COc3ccc(cc32)C(=O)NS1(=O)=O` [Example 100171, ((1S,3′R,6′R,7′S,8′E,11′S,12′R)-6-chloro-7′-hydroxy-11′,12′-dimethyl-13′,13′-dioxido-15′-oxo-3,4-dihydro-2H-spiro[naphthalene-1,22′-[20]oxa[13]thia[1,14]diazatetracyclo [14.7.2.0~3,6~.0~19,24~]pentacosa[8,16,18,24]tetraen]-7′-yl)acetaldehyde], the values for the negative-log IC50 (pIC50) in test [1] (setting [3]) and in test [2] (setting [4]) were 6.06 and 9.24, respectively.

Regarding `CC[C@@H]1CC/C=C/[C@](O)(C(F)(F)F)[C@@H]2CC[C@H]2CN2C[C@@]3(CCCc4cc(Cl)ccc43)COc3ccc(cc32)C(=O)NS1(=O)=O` [Example 100044, (1S,3′R,6′R,7′R,8′E,12′R)-6-chloro-12′-ethyl-7′-hydroxy-7′-(trifluoromethyl)-3,4-dihydro-2H,15′H-spiro[naphthalene-1,22′-[20]oxa[13]thia[1,14]diazatetracyclo [14.7.2.0~3,6~.0~19,24~]pentacosa[8,16,18,24]tetraen]-15′-one 13′,13′-dioxide], the negative logarithm of the IC50 (pIC50) was 5.14 in test [1] (setting [7]) and 7.51 in test [2] (setting [4]).

With `CO[C@]1(CCN2CCN3CCCC[C@@H]3C2)CCC[C@H](C)[C@@H](C)S(=O)(=O)NC(=O)c2ccc3c(c2)N(C[C@@H]2CC[C@H]21)C[C@@]1(CCCc2cc(Cl)ccc21)CO3` [Example 100592, (1S,3′R,6′R,7′S,11′S,12′R)-6-chloro-7′-methoxy-11′,12′-dimethyl-7′-(2-((9aR)-octahydro-2H-pyrido[1,2-a]pyrazin-2-yl)ethyl)-3,4-dihydro-2H,15′H-spiro[naphthalene-1,22′-[20]oxa[13]thia[1,14]diazatetracyclo [14.7.2.0~3,6~.0~19,24~]pentacosa[16,18,24]trien]-15′-one 13′,13′-dioxide], the figures for the negative-log IC50 (pIC50) in test [1] (setting [3]) and in test [2] (setting [4]) were 6.86 and 9.56, respectively.

`CO[C@@]1(CN2CCN3CCS(=O)(=O)C[C@@H]3C2)/C=C/C[C@H](C)[C@@H](C)S(=O)(=O)NC(=O)c2ccc3c(c2)N(C[C@@H]2CC[C@H]21)C[C@@]1(CCCc2cc(Cl)ccc21)CO3` (single isomer, unassigned) [Example 232]: the pIC50 in test [1] (read-out: OPM-2 10% FBS IC50 IP, OPM-2 cells, 10% FBS, 16 h incubation) was 6.70; in test [2] (setting [6]) it was 9.85.

Consider `C[C@@H]1[C@@H](C)C/C=C/[C@]2(CN(CC3CCCCC3)CCO2)[C@@H]2CC[C@H]2CN2C[C@@]3(CCCc4cc(Cl)ccc43)COc3ccc(cc32)C(=O)NS1(=O)=O` [Example 139, (1S,3′R,6′R,7′R,8′E,11′S,12′R)-6-chloro-4″- (cyclohexylmethyl)-11′,12′-dimethyl-3,4-dihydro-2H,15′H-dispiro[naphthalene-1,22′-[20]oxa[13]thia[1,14]diazatetracyclo [14.7.2.0~3,6~.0~19,24~]pentacosa[8,16,18,24]tetraene-7′,2″-[1,4]oxazinan]-15′-one 13′,13′-dioxide], for which the pIC50 in test [1] (setting [5]) was below 4.48; in test [2] (setting [6]) it was 7.49.

Turning to `CCN(CC)C(=O)C[C@]1(O)CCC[C@H](C)[C@@H](C)S(=O)(=O)NC(=O)c2ccc3c(c2)N(C[C@@H]2CC[C@H]21)C[C@@]1(CCCc2cc(Cl)ccc21)CO3` [Example 100112, 2-((1S,3′R,6′R,7′R,11′S,12′R)-6-chloro-7′-hydroxy-11′,12′-dimethyl-13′,13′-dioxido-15′-oxo-3,4-dihydro-2H-spiro[naphthalene-1,22′-[20]oxa[13]thia[1,14]diazatetracyclo [14.7.2.0~3,6~.0~19,24~]pentacosa[16,18,24]trien]-7′-yl)-N,N-diethylacetamide], the figures for the negative logarithm of the IC50 (pIC50) in test [1] (setting [7]) and in test [2] were 5.74 and 8.89, respectively.

Take `CC[C@]1(OCCN2CCOCC2)/C=C/C[C@H](C)[C@@H](C)S(=O)(=O)NC(=O)c2ccc3c(c2)N(C[C@@H]2CC[C@H]21)C[C@@]1(CCCc2cc(Cl)ccc21)CO3` (single isomer, unassigned) [Example 100481]: the pIC50 in test [1] (setting [3]) is 6.82; in test [2] (setting [4]), 10.03.

As for `C[C@@H]1[C@@H](C)CCC[C@@](O)(COS(C)(=O)=O)[C@@H]2CC[C@H]2CN2C[C@@]3(CCCc4cc(Cl)ccc43)COc3ccc(cc32)C(=O)NS1(=O)=O` [Example 100271, ((1S,3′R,6′R,7′S,11′S,12′R)-6-chloro-7′-hydroxy-11′,12′-dimethyl-13′,13′-dioxido-15′-oxo-3,4-dihydro-2H-spiro[naphthalene-1,22′-[20]oxa[13]thia[1,14]diazatetracyclo [14.7.2.0~3,6~.0~19,24~]pentacosa[16,18,24]trien]-7′-yl)methyl methanesulfonate], the negative logarithm of the IC50 (pIC50) in test [1] (setting [7]) was 5.21; in test [2], 8.61.

Take `CCO[C@@]1(CN2CCN3CCCC[C@@H]3C2)/C=C/C[C@H](C)[C@@H](C)S(=O)(=O)NC(=O)c2ccc3c(c2)N(C[C@@H]2CC[C@H]21)C[C@@]1(CCCc2cc(Cl)ccc21)CO3` [Example 107, (1S,3′R,6′R,7′S,8′E,11′S,12′R)-6-chloro-7′-ethoxy-11′,12′-dimethyl-7′-((9aR)-octahydro-2H-pyrido[1,2-a]pyrazin-2-ylmethyl)-3,4-dihydro-2H,15′H-spiro[naphthalene-1,22′-[20]oxa[13]thia[1,14]diazatetracyclo [14.7.2.0~3,6~.0~19,24~]pentacosa[8,16,18,24]tetraen]-15′-one 13′,13′-dioxide]: the pIC50 in test [1] (setting [5]) was 6.06; in test [2] (setting [6]), 8.94.
